# From patent US8192962B2, “Processes for detecting toxic substances” (Daikin Industries, Ltd., priority 2001, dated 2012)
# System: Mitochondria-located protein genes
# Test: DNA chip mRNA expression in yeast, mitochondria-located protein genes (Table 2)
# Format: cell-based, Saccharomyces cerevisiae S288C
# Details: cells incubated two hours with the chemical substance
# Summary of the method: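 S. cerevisiae S288C grown at 25° C in YPD were exposed in log phase for two hours to one toxic chemical at a growth-inhibiting, non-lethal concentration; untreated cells served as control. Poly(A) mRNA was reverse-transcribed with Cy3/Cy5-dUTP and hybridized to a whole-genome yeast DNA chip at 65° C for over 12 hours; values are fluorescence ratios versus untreated.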
smiles,measurement,setting,value
"Oc1cc(Cl)c(Cl)cc1Cl [(6), 2,4,5-trichlorophenol]",The level of expressed mRNA in the presence of chemical substance/The level of expressed mRNA in the absence of chemical substance,yeast gene YAL039C,0.8
same,The level of expressed mRNA in the presence of chemical substance/The level of expressed mRNA in the absence of chemical substance,yeast gene YBL022C,1.2
same,The level of expressed mRNA in the presence of chemical substance/The level of expressed mRNA in the absence of chemical substance,yeast gene YBL030C,1.1
same,The level of expressed mRNA in the presence of chemical substance/The level of expressed mRNA in the absence of chemical substance,yeast gene YBL038W,0.7
same,The level of expressed mRNA in the presence of chemical substance/The level of expressed mRNA in the absence of chemical substance,yeast gene YBL099W,0.9
same,The level of expressed mRNA in the presence of chemical substance/The level of expressed mRNA in the absence of chemical substance,yeast gene YBR003W,1.2
same,The level of expressed mRNA in the presence of chemical substance/The level of expressed mRNA in the absence of chemical substance,yeast gene YBR044C,1.0
same,The level of expressed mRNA in the presence of chemical substance/The level of expressed mRNA in the absence of chemical substance,yeast gene YBR091C,0.7
same,The level of expressed mRNA in the presence of chemical substance/The level of expressed mRNA in the absence of chemical substance,yeast gene YBR122C,1.1
same,The level of expressed mRNA in the presence of chemical substance/The level of expressed mRNA in the absence of chemical substance,yeast gene YBR185C,1.2
same,The level of expressed mRNA in the presence of chemical substance/The level of expressed mRNA in the absence of chemical substance,yeast gene YBR221C,1.7
same,The level of expressed mRNA in the presence of chemical substance/The level of expressed mRNA in the absence of chemical substance,yeast gene YBR251W,2.0
same,The level of expressed mRNA in the presence of chemical substance/The level of expressed mRNA in the absence of chemical substance,yeast gene YBR282W,1.4
same,The level of expressed mRNA in the presence of chemical substance/The level of expressed mRNA in the absence of chemical substance,yeast gene YCL057W,1.8
same,The level of expressed mRNA in the presence of chemical substance/The level of expressed mRNA in the absence of chemical substance,yeast gene YCR046C,0.8
same,The level of expressed mRNA in the presence of chemical substance/The level of expressed mRNA in the absence of chemical substance,yeast gene YCR083W,2.4
same,The level of expressed mRNA in the presence of chemical substance/The level of expressed mRNA in the absence of chemical substance,yeast gene YDL067C,0.9
same,The level of expressed mRNA in the presence of chemical substance/The level of expressed mRNA in the absence of chemical substance,yeast gene YDL181W,1.2
same,The level of expressed mRNA in the presence of chemical substance/The level of expressed mRNA in the absence of chemical substance,yeast gene YDL198C,0.8
same,The level of expressed mRNA in the presence of chemical substance/The level of expressed mRNA in the absence of chemical substance,yeast gene YDR079W,1.7
same,The level of expressed mRNA in the presence of chemical substance/The level of expressed mRNA in the absence of chemical substance,yeast gene YDR178W,2.1
same,The level of expressed mRNA in the presence of chemical substance/The level of expressed mRNA in the absence of chemical substance,yeast gene YDR231C,2.2
same,The level of expressed mRNA in the presence of chemical substance/The level of expressed mRNA in the absence of chemical substance,yeast gene YDR258C,2.4
same,The level of expressed mRNA in the presence of chemical substance/The level of expressed mRNA in the absence of chemical substance,yeast gene YDR298C,1.2
same,The level of expressed mRNA in the presence of chemical substance/The level of expressed mRNA in the absence of chemical substance,yeast gene YDR347W,1.2
same,The level of expressed mRNA in the presence of chemical substance/The level of expressed mRNA in the absence of chemical substance,yeast gene YDR377W,1.3
same,The level of expressed mRNA in the presence of chemical substance/The level of expressed mRNA in the absence of chemical substance,yeast gene YDR529C,0.8
same,The level of expressed mRNA in the presence of chemical substance/The level of expressed mRNA in the absence of chemical substance,yeast gene YEL024W,1.1
same,The level of expressed mRNA in the presence of chemical substance/The level of expressed mRNA in the absence of chemical substance,yeast gene YEL039C,1.5
same,The level of expressed mRNA in the presence of chemical substance/The level of expressed mRNA in the absence of chemical substance,yeast gene YER178W,2.5
same,The level of expressed mRNA in the presence of chemical substance/The level of expressed mRNA in the absence of chemical substance,yeast gene YFL016C,1.3
same,The level of expressed mRNA in the presence of chemical substance/The level of expressed mRNA in the absence of chemical substance,yeast gene YGL018C,0.4
same,The level of expressed mRNA in the presence of chemical substance/The level of expressed mRNA in the absence of chemical substance,yeast gene YGL187C,1.1
same,The level of expressed mRNA in the presence of chemical substance/The level of expressed mRNA in the absence of chemical substance,yeast gene YGL191W,1.6
same,The level of expressed mRNA in the presence of chemical substance/The level of expressed mRNA in the absence of chemical substance,yeast gene YGR008C,2.9
same,The level of expressed mRNA in the presence of chemical substance/The level of expressed mRNA in the absence of chemical substance,yeast gene YGR028W,1.5
same,The level of expressed mRNA in the presence of chemical substance/The level of expressed mRNA in the absence of chemical substance,yeast gene YGR062C,0.9
same,The level of expressed mRNA in the presence of chemical substance/The level of expressed mRNA in the absence of chemical substance,yeast gene YGR076C,1.2
same,The level of expressed mRNA in the presence of chemical substance/The level of expressed mRNA in the absence of chemical substance,yeast gene YGR082W,1.1
same,The level of expressed mRNA in the presence of chemical substance/The level of expressed mRNA in the absence of chemical substance,yeast gene YGR174C,1.4
same,The level of expressed mRNA in the presence of chemical substance/The level of expressed mRNA in the absence of chemical substance,yeast gene YGR244C,2.6
same,The level of expressed mRNA in the presence of chemical substance/The level of expressed mRNA in the absence of chemical substance,yeast gene YHR008C,1.0
same,The level of expressed mRNA in the presence of chemical substance/The level of expressed mRNA in the absence of chemical substance,yeast gene YIL155C,1.4
same,The level of expressed mRNA in the presence of chemical substance/The level of expressed mRNA in the absence of chemical substance,yeast gene YJL096W,1.0
same,The level of expressed mRNA in the presence of chemical substance/The level of expressed mRNA in the absence of chemical substance,yeast gene YJL102W,1.6
same,The level of expressed mRNA in the presence of chemical substance/The level of expressed mRNA in the absence of chemical substance,yeast gene YJL133W,0.5
same,The level of expressed mRNA in the presence of chemical substance/The level of expressed mRNA in the absence of chemical substance,yeast gene YJL166W,0.7
same,The level of expressed mRNA in the presence of chemical substance/The level of expressed mRNA in the absence of chemical substance,yeast gene YJL180C,1.3
same,The level of expressed mRNA in the presence of chemical substance/The level of expressed mRNA in the absence of chemical substance,yeast gene YJR045C,1.2
same,The level of expressed mRNA in the presence of chemical substance/The level of expressed mRNA in the absence of chemical substance,yeast gene YJR077C,0.9
